The target of data set [1] is T1, human adenosine A2A receptor (Homo sapiens, UniProt P29274).
T1 construct: expressed in transfected cells; host or cells: CHO cells, Semliki Forest virus expression system; membrane preparation
As to the kind of experiment: [3H]-SCH-58261 binding assay, human adenosine A2A receptor. The settings on record: [3H]-SCH-58261 1 nM; membranes of CHO cells expressing the recombinant receptor; Ki by Cheng-Prussoff; read-out: hA2 (pKi) (converted). As for the experimental part:
Human Adenosine A2A Receptor
The human adenosine A2A receptor was recombinantly expressed in Chinese hamster ovary (CHO) cells using the semliki forest virus expression system. Cells were harvested, washed twice by centrifugation, homogenized and again washed by centrifugation. The final washed membrane pellet was suspended in a Tris (50 mM) buffer containing 120 mM NaCl, 5 mM KCl, 2 mM CaCl2 and 10 mM MgCl2 (pH 7.4) (buffer A). The [^3H]-SCH-58261 (Dionisotti et al., 1997, Br J Pharmacol 121, 353; 1 nM) binding assay was carried out in 96-well plates in the presence of 2.5 μg of membrane protein, 0.5 mg of Ysi-poly-1-lysine SPA beads and 0.1 U adenosine deaminase in a final volume of 200 μl of buffer A. Non-specific binding was defined using xanthine amine congener (XAC; 2 μM). Compounds were tested at 10 concentrations from 10 μM-0.3 nM. All assays were conducted in duplicate and repeated at least two times. Assay plates were incubated for 1 hour at room temperature before centrifugation and then bound ligand determined using a Packard Topcount scintillation counter. IC50 values were calculated using a non-linear curve fitting program and Ki values calculated using the Cheng-Prussoff equation.

T1 sequence (P29274 whole entry): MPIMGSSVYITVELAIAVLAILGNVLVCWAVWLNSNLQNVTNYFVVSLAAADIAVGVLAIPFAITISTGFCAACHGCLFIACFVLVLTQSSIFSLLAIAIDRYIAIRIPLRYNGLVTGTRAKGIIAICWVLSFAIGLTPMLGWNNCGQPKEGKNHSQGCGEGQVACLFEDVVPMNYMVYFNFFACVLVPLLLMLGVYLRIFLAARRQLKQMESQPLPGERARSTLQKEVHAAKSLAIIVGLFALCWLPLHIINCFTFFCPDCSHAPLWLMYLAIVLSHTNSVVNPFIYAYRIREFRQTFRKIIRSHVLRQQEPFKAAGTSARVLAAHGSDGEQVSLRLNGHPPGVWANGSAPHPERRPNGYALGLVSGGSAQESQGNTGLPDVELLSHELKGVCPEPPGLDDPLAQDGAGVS

As for `COc1ccc(N2CCOCC2)c2sc(NC(=O)OC3CCC(O)C3)nc12` (mixture of isomers) [Example 11, (cis/trans)-(4-Methoxy-7-morpholin-4-yl-benzothiazol-2-yl)-carbamic acid 3-hydroxy-cyclopentyl ester], the melting point (commonly the temperature, or range, at which the solid turns liquid) was 188 to 189 °C. In addition, the Ki in data set [1] was 15.8 nM.
Compound `COc1ccc(N2CCOCC2)c2sc(NC(=O)OC3CC4CC3CC4O)nc12` (racemic) [Example 9, (rac)-(exo,exo)-(4-Methoxy-7-morpholin-4-yl-benzothiazol-2-yl)-carbamic acid 5-hydroxy-bicyclo[2.2.1]hept-2-yl ester] showed a melting point of 193 to 194 °C. The Ki in data set [1] was 3.98 nM.
As for `COc1ccc(C2CCOCC2)c2sc(NC(=O)O[C@H]3CC[C@H](O)CC3)nc12` [Example 1, (trans)-[4-Methoxy-7-(tetrahydro-pyran-4-yl)-benzothiazol-2-yl]-carbamic acid 4-hydroxy-cyclohexyl ester], the melting point lay in the range of 282 to 284 °C. In addition, the Ki in data set [1] is 2 nM.
Consider `CCOC(=O)Nc1nc2c(OC)ccc(C3CCOCC3)c2s1` [Example 2, [4-Methoxy-7-(tetrahydro-pyran-4-yl)-benzothiazol-2-yl]-carbamic acid ethyl ester], for which the melting point lay in the range of 170 to 174 °C. The Ki in data set [1] is 5.01 nM.
Take `COCCOC(=O)Nc1nc2c(OC)ccc(N3CCOCC3)c2s1` [Example 3, (4-Methoxy-7-morpholin-4-yl-benzothiazol-2-yl)-carbamic acid 2-methoxy-ethyl ester]: the melting point is 149 to 152 °C. Besides, the Ki in data set [1] was 12.6 nM.
Regarding `COc1ccc(N2CCOCC2)c2sc(NC(=O)OCC(C)C)nc12` [Example 4, (4-Methoxy-7-morpholin-4-yl-benzothiazol-2-yl)-carbamic acid isobutyl ester], the melting point was in the range of 164 to 168 °C. In data set [1], the Ki is 25.1 nM.
Compound `COc1ccc(N2CCOCC2)c2sc(NC(=O)OC3CCCCC3)nc12` [Example 5, (4-Methoxy-7-morpholin-4-yl-benzothiazol-2-yl)-carbamic acid cyclohexyl ester] displayed a melting point of 177 to 179 °C. For the same compound, the Ki in data set [1] was 7.94 nM.
The compound `COc1ccc(N2CCOCC2)c2sc(NC(=O)O[C@H]3CC[C@H](O)CC3)nc12` [Example 6, (tran)s-(4-Methoxy-7-morpholin-4-yl-benzothiazol-2-yl)-carbamic acid 4-hydroxy-cyclohexyl ester] registered a melting point of 176 to 179 °C. Further, the Ki in data set [1] was 6.31 nM.
The matching figures for `COc1ccc(N2CCOCC2)c2sc(NC(=O)O[C@H]3CC[C@@H](O)CC3)nc12` [Example 7, (cis)-(4-Methoxy-7-morpholin-4-yl-benzothiazol-2-yl)-carbamic acid 4-hydroxy-cydohexyl ester]: 204 to 206 °C and 10 nM.
`COc1ccc(N2CCOCC2)c2sc(NC(=O)OC3CCOCC3)nc12` [Example 8, (4-Methoxy-7-morpholin-4-yl-benzothiazol-2-yl)-carbamic acid tetrahydro-pyran-4-yl ester] displayed a melting point of 187 to 188 °C. In addition, the Ki in data set [1] is 7.94 nM.
The like results for `COc1ccc(N2CCOCC2)c2sc(NC(=O)O[C@@H]3CCOC3)nc12` [Example 10, (R)-(4-Methoxy-7-morpholin-4-yl-benzothiazol-2-yl)-carbamic acid tetrahydro-furan-3-yl ester] were, in that order, 198 to 200 °C and 25.1 nM.
For the compound `COc1ccc(C2CCOCC2)c2sc(NC(=O)OCC3CCCO3)nc12` (centres unmarked) [Example 12, [4-Methoxy-7-(tetrahydro-pyran-4-yl)-benzothiazol-2-yl]-carbamic acid tetrahydro-furan-2-ylmethyl ester], the melting point was 175 to 180 °C. Besides, the Ki in data set [1] is 12.6 nM.
Compound `COc1ccc(C2CCOCC2)c2sc(NC(=O)O[C@H]3CCOC3)nc12` [Example 13, [4-Methoxy-7-(tetrahydro-pyran-4-yl)-benzothiazol-2-yl]-carbamic acid (S)-(tetrahydro-furan-3-yl) ester] returned a melting point of 195 to 200 °C. Moreover, the Ki in data set [1] is 3.98 nM.

The values are drawn from patent US7304058B2, “Carbamic acid esters of benzothiazoles” (Hoffmann-La Roche Inc., priority 2003, dated 2007).
